Assay [1] relates to esophageal injury in reflux esophagitis models. Nature of the assay: Inhibitory effects against esophageal injury in reflux esophagitis models. The assay is classed as in vivo, Sprague Dawley (SD) rats. The settings on record: Rattus norvegicus; percent inhibition of esophageal injury area vs control; rats, 2 mg/kg oral 1 hour before ligation, measured 6 hours after ligation; read-out: GERD (rat/mpk). As for the experimental part: Test Example 3: Inhibitory Effects against Esophageal Injury in Reflux Esophagitis Models The inhibitory effects of the compounds of the present disclosure against esophageal injury in reflux esophagitis models were evaluated according to the method of Nakamura [Nakamura K, et al., Effects of sodium polyacrylate (PANa) on acute esophagitis by gastric juice in rats, Jpn J Pharmacology, 1982, 32, 445-56]. Male Sprague Dawley (SD) rats (weighing 180-210 g) were divided into X groups (n=6) and fasted without water for 24 hours. Then, the control group was administered orally with only 10% DMSO, 10% Cremophor EL and 80% water, and the other groups were administered orally with 2 mg/kg/2 ml of each test compound together with 10% DMSO, 10% Cremophor EL and 80% water. At 1 hour after administration of the excipients and each compound, the abdominal cavity of each rate was incised under isoflurane anesthesia, and the pylorus was ligated, and the boundary between the anterior portion and the body was also ligated. At 6 hours after ligation, the test animals were euthanized, and the esophagus ranging from the thyroid to the cardiac portion was carefully extracted. The extracted esophagus was incised in a longitudinal direction and spread so as to expose the mucosa and was then fixed, after which the area of esophageal injury was measured. Percent (%) inhibitory activity of test compounds={(total esophageal injury area of control group−esophageal injury area of group treated with test compound)/total esophageal injury area of control group}×100.

Assay [2] concerns histamine-stimulated gastric acid secretion. Nature of the assay: Inhibitory effects against histamine-stimulated gastric acid secretion in pylorus-ligated rats (Shay's rat models). The following applies: percent inhibition of total acid output vs control, 2 mg/kg oral 1 hour before pylorus ligation, histamine 30 mg/kg s.c., 3 hours after ligation. The assay is classed as in vivo, Sprague-Dawley (SD) rats. The procedure:
Test Example 4: Inhibitory Effects against Histamine-Stimulated Gastric Acid Secretion in Pylorus-Ligated Rats The inhibitory effects of the compounds of the present disclosure against histamine-stimulated gastric acid secretion were evaluated using Shay's rat models [Shay H, et al. A simple method for the uniform production of gastric ulceration in the rat, Gastroenterology, 1945, 5, 43-61]. Male Sprague-Dawley (SD) rats (weighing 180-210 g) were divided into X groups (n=7) and fasted with only water access for 24 hours. At 1 hour before pylorus ligation, the control group was administered orally with only 10% DMSO, 10% Cremophor EL and 80% water, and the other groups were administered orally with 2 mg/kg/2 ml of each compound together with 10% DMSO, 10% Cremophor EL and 80% water. The abdominal cavity of each rate was incised under isoflurane anesthesia, and the pylorus was ligated. Immediately after ligation, histamine 2HCl was administered subcutaneously to each rat at a dose of 30 mg/kg/10 ml. At 3 hours after ligation, the test animals were euthanized, and the gastric content was extracted. The extracted gastric content was centrifuged at 3,000×g for 10 minutes, and the supernatant was collected to obtain gastric juice. Next, the acidity of the gastric juice was determined based on the volume of (ueq/ml) of 0.1 N—NaOH required for automatic titration of the gastric juice to pH 7.0, and the acidity of the gastric juice was multiplied by the amount of the gastric juice to determine total acid output. Percent (%) inhibitory activity of test compounds={(total acid output in control group−total acid output in group treated with test compound)/total acid output in control group}×100.

For assay [3], the target named is T1, proton pump (H+/K+-ATPase), porcine gastric vesicles (Sus scrofa, UniProt P19156).
T1 construct: reaction buffer (50 mmol/L Tris-Hepes buffer, pH 6.4) containing porcine gastric vesicles; from tissue; host or cells: porcine gastric mucosa (gastric vesicles prepared by centrifugation)
Nature of the assay: Inhibitory effects against proton pump (H+/K+-ATPase) activity, malachite green phosphate assay. The settings on record: pH 6.4, 37° C., K+-dependent activity. In kind it is biochemical. As for the experimental part: Test Example 1: Preparation of Gastric Vesicles
Gastric vesicles used in the experiment were prepared by separation from porcine gastric mucosa according to a centrifugation method [Saccomani G, et al., A Nonelectrogenic H^+ Pump in Plasma Membranes of Hog Stomach, J Biol Chem., 1976, 251 (23), 7690-8]. Next, the protein content of the gastric vesicles was quantified using a bicinchoninic acid kit [Smith P K, et al., Measurement of protein using bicinchoninic acid, Anal Biochem., 1985, 150 (1), 76-85)].
Test Example 2: Measurement of Inhibitory Effects Against Proton Pump (H^+/K^+-ATPase) Activity
The inhibitory effects of the compounds against proton pump activity were calculated based on the pump activity determined in the presence of K^+ ions excluding the pump activity determined in the absence of K^+ ions. The inhibitory effects against proton pump activity were measured in 96-well plates, and all reactions were performed with a reaction volume of […] at 37° C. Specifically, 10 μm of valinomycin and each concentration of each compound were pre-incubated in a reaction buffer (50 mmol/L Tris-Hepes buffer, pH 6.4) containing porcine gastric vesicles for 15 minutes. For negative and positive control groups, 1% DMSO was added to buffer, and for test groups, 1% DMSO and a dilution of each concentration of each compound were added. Next, 0.2 mmol/L of adenosine triphosphate (ATP) was added to the reaction buffer and incubated at 37° C. for 40 minutes. After completion of the incubation, a malachite green solution was added to the reaction buffer and incubated for 30 minutes, and the amount of inorganic phosphate in the reaction buffer was measured by colorimetry using a malachite green phosphate assay Kit (Bioassay Systems). For colorimetry, the OD (optical density) at 620 nm was measured using a microplate reader [Synergy H4, hybrid multimode microplate reader, BioTek]. The percent inhibition of proton pump (H^+/K^+-ATPase) was determined based on the OD value of the control group and the OD values of various concentrations of the test compounds, and the IC50 of each test compound was calculated using the Logistic 4-parameter function of Sigmaplot 8.0 program.

Structures are written as SMILES.

T1 sequence (P19156 2-1034 limits assumed): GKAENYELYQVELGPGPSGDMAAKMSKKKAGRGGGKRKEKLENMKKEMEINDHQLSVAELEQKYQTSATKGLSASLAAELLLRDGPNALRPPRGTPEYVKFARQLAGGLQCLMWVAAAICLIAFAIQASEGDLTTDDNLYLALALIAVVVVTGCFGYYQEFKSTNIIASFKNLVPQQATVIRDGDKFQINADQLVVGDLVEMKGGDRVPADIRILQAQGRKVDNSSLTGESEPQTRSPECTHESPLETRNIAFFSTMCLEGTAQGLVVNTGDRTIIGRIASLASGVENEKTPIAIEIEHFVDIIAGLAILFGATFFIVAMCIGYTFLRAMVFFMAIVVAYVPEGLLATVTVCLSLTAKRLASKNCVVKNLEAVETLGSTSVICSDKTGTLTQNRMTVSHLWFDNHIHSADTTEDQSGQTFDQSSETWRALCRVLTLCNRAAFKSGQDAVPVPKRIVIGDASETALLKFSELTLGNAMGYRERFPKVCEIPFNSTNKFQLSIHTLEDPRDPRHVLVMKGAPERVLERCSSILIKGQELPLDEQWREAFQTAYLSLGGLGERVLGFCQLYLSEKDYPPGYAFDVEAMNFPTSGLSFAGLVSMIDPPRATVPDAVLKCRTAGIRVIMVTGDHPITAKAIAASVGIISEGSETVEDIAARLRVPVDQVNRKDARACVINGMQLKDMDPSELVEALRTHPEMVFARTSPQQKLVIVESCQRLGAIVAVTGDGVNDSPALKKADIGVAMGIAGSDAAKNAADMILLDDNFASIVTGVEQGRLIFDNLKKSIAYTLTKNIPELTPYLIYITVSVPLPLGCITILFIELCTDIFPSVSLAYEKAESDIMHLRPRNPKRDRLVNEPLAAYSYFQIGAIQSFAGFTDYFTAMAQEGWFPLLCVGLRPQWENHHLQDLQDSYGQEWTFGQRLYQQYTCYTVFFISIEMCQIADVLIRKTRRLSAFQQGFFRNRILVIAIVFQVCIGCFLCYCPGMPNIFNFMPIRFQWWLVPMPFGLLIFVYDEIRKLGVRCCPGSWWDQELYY
T1 sequence (P18434 whole entry partner): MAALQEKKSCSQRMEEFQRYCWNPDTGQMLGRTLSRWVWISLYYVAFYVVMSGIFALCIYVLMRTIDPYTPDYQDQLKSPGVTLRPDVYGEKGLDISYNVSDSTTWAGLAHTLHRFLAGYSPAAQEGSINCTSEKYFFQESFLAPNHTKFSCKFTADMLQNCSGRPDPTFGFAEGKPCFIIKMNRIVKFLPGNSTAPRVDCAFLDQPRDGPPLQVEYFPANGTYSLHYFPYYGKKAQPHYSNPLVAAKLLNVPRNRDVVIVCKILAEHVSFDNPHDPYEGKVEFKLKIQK

On to `Cc1cccc(C)c1CNc1cc(C(=O)N2CC(O)C2)cn2c(C)c(C)nc12` [Example 1, {8-[(2,6-Dimethylbenzyl)amino]-2,3-dimethylimidazo[1,2-α]pyridin-6-yl}(3-hydroxyazetidin-1-yl)methanone], for which, in assay [1], the inhibition in vivo at 2 mg/kg is 84%. Besides, in assay [2], the “acid output (rat/2 mpk)” value stood at 71%. In addition, the IC50 in assay [3] stood at 20 nM. Taken in the same sequence, the figures for `Cc1cccc(C)c1CNc1cc(C(=O)N2CCC2)cn2c(C)c(C)nc12` [Example 6, azetidin-1-yl{8-[(2,6-dimethylbenzyl)amino]-2,3-dimethylimidazo[1,2-α]pyridin-6-yl}methanone] were 100%, 94% and 17 nM.

Consider `Cc1cccc(C)c1CNc1cc(C(=O)N2CC(F)C2)cn2c(C)c(C)nc12` [Example 7, {8-[(2,6-dimethylbenzyl)amino]-2,3-dimethylimidazo[1,2-a]pyridin-6-yl}(3-fluoroazetidin-1-yl)methanone], for which, in assay [1], the inhibition in vivo at 2 mg/kg was 100%. Also, in assay [2], the “acid output (rat/2 mpk)” value amounted to 91%. Besides, the concentration for half-maximal inhibition (IC50) in assay [3] came to 55 nM. Take `Cc1cccc(C)c1CNc1cc(C(=O)N2CC(C)C2)cn2c(C)c(C)nc12` [Example 8, {8-[(2,6-dimethylbenzyl)amino]-2,3-dimethylimidazo[1,2-α]pyridin-6-yl}(3-methylazetidin-1-yl)methanone]: the inhibition in vivo at 2 mg/kg in assay [1] is 95.4%. In addition, the IC50 in assay [3] worked out at 96 nM.

For the compound `Cc1cccc(C)c1CNc1cc(C(=O)N2CC(C)(O)C2)cn2c(C)c(C)nc12` [Example 9, {8-[(2,6-dimethylbenzyl)amino]-2,3-dimethylimidazo[1,2-α]pyridin-6-yl}(3-hydroxy-3-methylazetidin-1-yl)methanone], in assay [1], the inhibition in vivo at 2 mg/kg came to 77.2%. Also, the IC50 in assay [3] was 69 nM. For the compound `Cc1cccc(C)c1CNc1cc(C(=O)N2CC(CO)C2)cn2c(C)c(C)nc12` [Example 11, {8-[(2,6-dimethylbenzyl)amino]-2,3-dimethylimidazo[1,2-α]pyridin-6-yl}[3-(hydroxymethyl)azetidin-1-yl]methanone], in assay [1], the inhibition in vivo at 2 mg/kg worked out at 97.6%. Moreover, in assay [2], the “acid output (rat/2 mpk)” value amounted to 78%. In addition, in assay [3], the half-inhibitory concentration (IC50) was found to be 39 nM. Take `Cc1cc(F)ccc1CNc1cc(C(=O)N2CC(CO)C2)cn2c(C)c(C)nc12` [Example 33, {8-[(4-fluoro-2-methylbenzyl)amino]-2,3-dimethylimidazo[1,2-α]pyridin-6-yl}(3-(hydroxymethyl)azetidin-1-yl)methanone]: the inhibition in vivo at 2 mg/kg in assay [1] turned out to be 92.7%. For the same compound, the half-inhibitory concentration (IC50) in assay [3] was determined as 143 nM. On the same counts, the results for `Cc1cc(F)cc(C)c1CNc1cc(C(=O)N2CC(O)C2)cn2c(C)c(C)nc12` [Example 34, {8-[(4-fluoro-2,6-dimethylbenzyl)amino]-2,3-dimethylimidazo[1,2-α]pyridin-6-yl}(3-hydroxyazetidin-1-yl)methanone] are 91.4% and 28 nM.

`Cc1cc(F)cc(C)c1CNc1cc(C(=O)N2CC(F)C2)cn2c(C)c(C)nc12` [Example 36, {8-[(4-fluoro-2,6-dimethylbenzyl)amino]-2,3-dimethylimidazo[1,2-α]pyridin-6-yl}(3-fluoroazetidin-1-yl)methanone]: the inhibition in vivo at 2 mg/kg in assay [1] was 98.2%. Further, in assay [3], the IC50 worked out at 29 nM. On the same counts, the results for `Cc1cc(F)cc(C)c1CNc1cc(C(=O)N2CC(CO)C2)cn2c(C)c(C)nc12` [Example 39, {8-[(4-fluoro-2,6-dimethylbenzyl)amino]-2,3-dimethylimidazo[1,2-α]pyridin-6-yl}[3-(hydroxymethyl)azetidin-1-yl]methanone] are 98.4% and 24 nM. In the case of `Cc1ccc(F)c(C)c1CNc1cc(C(=O)N2CCC2)cn2c(C)c(C)nc12` [Example 42, azetidin-1-yl{8-[(3-fluoro-2,6-dimethylbenzyl)amino]-2,3-dimethylimidazo[1,2-α]pyridin-6-yl}methanone], the IC50 in assay [3] worked out at 85 nM. Turning to `Cc1ccc(F)c(C)c1CNc1cc(C(=O)N2CC(F)C2)cn2c(C)c(C)nc12` [Example 43, {8-[(3-fluoro-2,6-dimethylbenzyl)amino]-2,3-dimethylimidazo[1,2-α]pyridin-6-yl}(3-fluoroazetidin-1-yl)methanone], the IC50 in assay [3] was determined as 174 nM. Same read-out and setting: in the case of `Cc1ccc(F)c(C)c1CNc1cc(C(=O)N2CC(CO)C2)cn2c(C)c(C)nc12` [Example 44, {8-[(3-fluoro-2,6-dimethylbenzyl)amino]-2,3-dimethylimidazo[1,2-α]pyridin-6-yl}[3-(hydroxymethyl)azetidin-1-yl]methanone] it was 61 nM; in that of `Cc1ccc(Cl)c(C)c1CNc1cc(C(=O)N2CCC2)cn2c(C)c(C)nc12` [Example 45, azetidin-1-yl{8-[(3-chloro-2,6-dimethylbenzyl)amino]-2,3-dimethylimidazo[1,2-α]pyridin-6-yl}methanone], 81 nM; in that of `Cc1ccc(Cl)c(C)c1CNc1cc(C(=O)N2CC(O)C2)cn2c(C)c(C)nc12` [Example 46], 163 nM. Take `Cc1ccc(Cl)c(C)c1CNc1cc(C(=O)N2CC(F)C2)cn2c(C)c(C)nc12` [Example 47, {8-[(3-chloro-2,6-dimethylbenzyl)amino]-2,3-dimethylimidazo[1,2-α]pyridin-6-yl}(3-fluoroazetidin-1-yl)methanone]: the half-inhibitory concentration (IC50) in assay [3] is 624 nM. `Cc1ccc(Cl)c(C)c1CNc1cc(C(=O)N2CC(CO)C2)cn2c(C)c(C)nc12` [Example 48, {8-[(3-chloro-2,6-dimethylbenzyl)amino]-2,3-dimethylimidazo[1,2-α]pyridin-6-yl}[3-(hydroxymethyl)azetidin-1-yl]methanone]: the IC50 in assay [3] was 102 nM.

Broadly, the IC50 is the midpoint of a concentration-inhibition curve.
